One experiment concerns normal white rat. As to the kind of experiment: Intraocular pressure change due to instillation in normal white rats (day-time and night-time). The experiment is classed as in vivo. On the procedure:
(§1) White rats were grouped as a physiological saline solution instillation group, an angiogenin (recombinant human angiogenin, R&D systems, USA) 50 μg/ml instillation group, an angiogenin fragment (angiogenin 108-122, SEQ ID NO: 1, BACHEM, USA) instillation group, and a latanoprost 50 μg/ml instillation group, and each group consisted of 6 rats, that is, 12 eyes. Instillation test was repeatedly performed on normal rats and glaucoma model rats. Ophthalmic agent was administered at 8 AM and 8 PM in an amount of 4 μl to compare day-time effects and night-time effects, and 1, 3, 6, 9, 12, and 24 hours after the instillation, intraocular pressure was measured.

A further experiment concerns glaucoma white rats. Description: Intraocular pressure change due to instillation in glaucoma white rats (day-time and night-time). The experiment is classed as in vivo, rat. Here is the method: Male white rats were used to prepare an episcleral venous ablation glaucoma model. The rat was anesthetized and a limbus periphery was divided into four portions, each of which was then subjected to 2 mm dissection at an interval of 90 degrees, and then, two radial conjunctival excisions were performed on upper dissection periphery. […] Episcleral vein is distinguishable because it is located […] than extra ocular muscle, has relatively low fluidity and a relatively large diameter, contains darker blood in vessel, and is connected to peripheral venous plexus. After surgical isolation of vein, the vein was lifted up by using 3 mm-width wooden spatula to be spaced apart from the peripheral tissue, and then, was subjected to electric ablation while being careful for the peripheral tissue not to have any thermal injury or any mechanical injury due to the contact. After the operation, a chloramphenical ophthalmic agent was administered thereto. Intraocular pressure was consecutively measured three or more times by using Tonopen (Solan, Fla., USA), and only reliable intraocular pressure values within 5% or less were recorded. Only used were rats that had higher intraocular pressure than that before the operation by 5 mmHg or more when measured on the first day, the third day, one week and two weeks before and after operation.
Also, steroid-induced glaucoma model was prepared as follows: 1% prednisolone was instilled twice a day in an amount of 4 μl for 30 days, and only rats that had higher intraocular pressure by 5 mmHg or more before operation were used.
as §1

Experiment [1] deals with nitric oxide (NO) concentration in aqueous humor. Description: NO concentration in aqueous humor after instillation (Griess assay). Type of experiment: in vivo, rat. The following applies: 1 hour after the initial instillation, 50 μg/ml, day-time and night-time test, rank among instillation groups. On the procedure:
Normal rat models were divided into 4 groups, each group consisting of 6 rats, that is, 12 eyes, and at 8 AM and 8 PM, each group was instilled with angiogenin 50 μg/ml, angiogenin fragment 50 μg/ml, and latanoprost 50 μg/ml, and 1, 3, and 6 hours after instillation, 15 to 20 μl of aqueous humor was extracted from two rats, that is, 4 eyes for each group. For the extraction of aqueous humor, first, rats were anesthetized, and then, corneal dissection was performed in a direction from at 9 o'clock outside each eye toward microkeratome, and then, a capillary tube was brought into contact through a dissection wound to absorb aqueous humor, which was then moved to an eppendroff tube and frozen-preserved at a temperature of −70 degrees. Thereafter, nitric oxide (NO) concentration in aqueous humor was measured by Griess assay (nitric oxide colorimetric assay kit, Biovision, USA). The aqueous humor was diluted 10 times and then mixed with the same amount of griess solution and reacted together for 10 minutes. The reaction product was moved onto a well plate and then, absorbance of nitrate, which is a NO formation reactant, was measured by using spectrophotometer at a wavelength of 540 nm and compared with a reference value to quantify the nitrate.

The test system of experiment [2] is chronic intraocular pressure increase rat model. Description: Intraocular pressure in chronic intraocular pressure increase rat model (episcleral venous electric ablation). Type of experiment: in vivo. Here is the method: (§2) 0.05 cc/50 g of Tiletimine and Zolazepam-mixed medicament (Zoletil) and Xylazine (Rompum) were mixed at a ratio of 1:1 and then administered to 20 rats by intramuscular injection, thereby anesthetizing the rats. A limbus periphery was divided into four portions, each of which was then subjected to 2 mm dissection at an interval of 90 degrees, and then, two radial conjunctival excisions were performed on upper dissection periphery. […] After surgical isolation of vein, the vein was lifted up by using 3 mm-width spatula to be spaced apart from the peripheral tissue, and then, was subjected to electric ablation while being careful for the peripheral tissue not to have any thermal damage or any mechanical damage due to contact. Intraocular pressure was consecutively measured three or more times by using Tonopen (Solan, Fla., USA), and only reliable intraocular pressure values within 5 percentile were recorded. 10 eyes of 10 rats were daily treated 4 times with angiogenin 10 μl 2 days before test, and even after espisderal venous electric ablation, 4 times a day at time intervals of 6 hours. The other 10 eyes of the rats, as a control, were consecutively treated in the same manner with physiological saline solution 10 μl before and after the ablation. Before the operation, and 3 days, and 1, 2, 4, and 8 weeks after the operation, intraocular pressure was measured, and the rats were sacrificed to extract eyes therefrom, which were then subjected to tissue examination and immunechemical staining with respect to Brn-3a and CD11b, and a reverse transcription polymerase chain reaction was used to measure CD11b value in retinal tissue.

The test system of a further experiment is CD11b. As to the kind of experiment: Reverse transcription polymerase chain reaction of CD11b in retinal tissue, chronic intraocular pressure increase model. Particulars: seventh day after episcleral venous electric ablation, compared to the control and the normal rat group. The experiment is classed as in vivo. On the procedure:
as §2, with “10 eyes of 10 rats were daily treated 4 times with angiogenin 10 μl 2 days before test, and even after espisderal venous electric ablation, 4 times a day at time intervals of 6 hours. The other 10 eyes of the rats, as a control, were consecutively treated in the same manner with physiological saline solution 10 μl before and after the ablation.” left out, “tissue. […]” for “tissue.”

Another experiment relates to caspase-3. Description: Reverse transcription polymerase chain reaction on injured tissue of corneal chemical burn model, caspase-3. The experiment is classed as in vivo, rat. The following applies: third day and seventh day after keratoconjunctival chemical injury. Here is the method:
Three days, and 1, 2, 4, and 8 weeks after injuring, corneal opacity and neoangiogenesis level were assessed in consideration of images of anterior ocular segment, and on the third day and the seventh day, the respective conjunctiva damaged parts were collected and then subjected to a reverse transcription polymerase chain reaction to assay expression of IL-1a, TGF-β, SDF-1, and caspase-3.
Tissues obtained from chronic intraocular pressure increase model and corneal chemical burn model were frozen, and then cut into small parts by using a fine knife. The tissue parts were treated with 1 ml of TRI reagent (Molecular Research Center, Inc.) and then, tissue and cell were lysed by homogenizer. The respective implication cDNA […] 0.2 mM dNTP, 10×buffer, 10 pmols primer, and 0.2 U Taq polymerase were mixed to obtain a volume of 20 μl, and then, PCR thermal cycler (a machine for PCR) was used for reaction for 5 minutes at 95° C., 40 second at 94° C., 40 seconds at 48 to 64° C., 40 seconds (35 cycles) at 72° C., and 10 minutes at 72° C. The amplified polymerase chain reaction product was identified by 1% agarose gel electrophoresis. β actin was used as a positive control for the polymerase chain reaction, and relative expression morphs of a target gene with respect to β actin expression were compared. […]

With “angiogenin: recombinant human angiogenin (R&D systems); 14.4 kDa single chain protein of 123 amino acids, a ribonuclease inducing angiogenesis”, the figures for the “time after instillation up to which significant intraocular pressure reduction was maintained” value in the experiment on normal white rat (day-time instillation) and in the experiment with normal white rat (night-time instillation) were “up to 9 hours” and “up to 24 hours”, respectively. In addition, the “time after instillation at which average intraocular pressure began to significantly decrease” value in the experiment on normal white rat (day-time instillation, 50 μg/ml) is 1 h. Also, in the experiment with normal white rat (day-time instillation, 50 μg/ml 4 μl, maintained up to 9 hours after the instillation), the “intraocular pressure reduction compared to the pre-instillation intraocular pressure” value was −1.8±0.4 mmHg. Besides, the “intraocular pressure reduction compared to that before instillation” value in the experiment with normal white rat (night-time instillation, 50 μg/ml, maintained up to 24 hours after the instillation) is listed as −1.5±0.4 mmHg. For the same substance, the “intraocular pressure reduction (in words)” value with normal white rat (night-time instillation, 1 hour after the instillation) was “significant intraocular pressure reduction”. Besides, the “time after instillation up to which significant intraocular pressure reduction effects were retained” value with glaucoma white rats (day-time instillation test) is listed as “up to 6 hours”. Besides, the “time after instillation up to which intraocular pressure reduction effects were retained” value with glaucoma white rats (night-time instillation) was “up to 12 hours”. For the same substance, the “NO concentration increase in aqueous humor” value in experiment [1] is recorded as “greatest NO concentration increase”. The average intraocular pressure in experiment [2] (1 week after the treatment, control 27.8±4.1) was found to be 21.4±6.2 mmHg; in experiment [2] (2 weeks after the treatment, control 25±3.0), 20.8±4.0 mmHg; in experiment [2] (4 weeks after the treatment, control 25.6±1.6), 23.6±2.0 mmHg; in experiment [2] (8 weeks after the treatment, control 23.0±2.4), 21.7±3.4 mmHg; in experiment [2] (before test, 10 eyes) it was 20.6±1.9 mmHg; in experiment [2] (for 8 weeks (overall average), control 25.4±3.6), 21.2±3.8 mmHg. Besides, the average intraocular pressure in experiment [2] (three days after the treatment, control 27.3±2.9) was found to be 20.7±2.6 mmHg. The “average intraocular pressure compared to the control (in words)” value in experiment [2] (3 days, and 1, 2, and 4 weeks after the episcleral venous injury) is reported as “significantly lower”. In addition, in experiment [2] (third day after the treatment (biggest difference)), the “intraocular pressure difference to the control” value was determined as 6.75±0.3 mmHg. The “CD11b expression in retina” value in the experiment on CD11b is reported as “significantly higher”. Also, the “caspase-3 expression compared to the control” value with caspase-3 is given as “less expressed”.

The values above are taken from patent US9855320B2, “Angiogenin for treatment of glaucoma” (CHUNG-ANG UNIVERSITY INDUSTRY-ACADEMIC COOPERATION …, priority 2011, dated 2018).
